Assay results published in PubChem BioAssay (NCI).
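In this assay, cells in 96-well plates receive the compound at five concentrations for 48 hours. Endpoints are linearly interpolated between the surrounding concentrations. Here, GI50 denotes the concentration required for 50% inhibition of growth. TGI: concentration producing complete growth inhibition.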

Legend:
Assay in all cases: inhibition of tumour cell growth, NCI panel, 48 h
786-0 renal = system: 786-0 renal
A498 renal = system: A498 renal
ACHN renal = system: ACHN renal
BT-549 breast = system: BT-549 breast
CAKI-1 renal = system: CAKI-1 renal
CCRF-CEM leukemia = system: CCRF-CEM leukemia
COLO 205 colon = system: COLO 205 colon
DU-145 prostate = system: DU-145 prostate
EKVX NSCLC = system: EKVX NSCLC
HCC-2998 colon = system: HCC-2998 colon
HCT-116 colon = system: HCT-116 colon
HCT-15 colon = system: HCT-15 colon
HL-60(TB) leukemia = system: HL-60(TB) leukemia
HOP-62 NSCLC = system: HOP-62 NSCLC
HS 578T breast = system: HS 578T breast
HT29 colon = system: HT29 colon
K-562 leukemia = system: K-562 leukemia
KM12 colon = system: KM12 colon
LOX IMVI melanoma = system: LOX IMVI melanoma
M14 melanoma = system: M14 melanoma
MALME-3M melanoma = system: MALME-3M melanoma
MCF7 breast = system: MCF7 breast
MDA-MB-231 breast = system: MDA-MB-231 breast
MDA-MB-435 = system: MDA-MB-435
MOLT-4 leukemia = system: MOLT-4 leukemia
NCI-H226 lung = system: NCI-H226 lung
NCI-H23 lung = system: NCI-H23 lung
NCI-H460 lung = system: NCI-H460 lung
NCI-H522 lung = system: NCI-H522 lung
NCI/ADR-RES ovarian = system: NCI/ADR-RES ovarian
OVCAR-3 ovarian = system: OVCAR-3 ovarian
OVCAR-4 ovarian = system: OVCAR-4 ovarian
OVCAR-5 ovarian = system: OVCAR-5 ovarian
OVCAR-8 ovarian = system: OVCAR-8 ovarian
PC-3 prostate = system: PC-3 prostate
SF-268 CNS = system: SF-268 CNS
SF-295 CNS = system: SF-295 CNS
SF-539 CNS = system: SF-539 CNS
SK-MEL-2 melanoma = system: SK-MEL-2 melanoma
SK-MEL-28 melanoma = system: SK-MEL-28 melanoma
SK-MEL-5 melanoma = system: SK-MEL-5 melanoma
SK-OV-3 ovarian = system: SK-OV-3 ovarian
SN12C renal = system: SN12C renal
SNB-19 CNS = system: SNB-19 CNS
SNB-75 CNS = system: SNB-75 CNS
SR leukemia = system: SR leukemia
SW-620 colon = system: SW-620 colon
T-47D breast = system: T-47D breast
TK-10 renal = system: TK-10 renal
U251 CNS = system: U251 CNS
UACC-257 melanoma = system: UACC-257 melanoma
UACC-62 melanoma = system: UACC-62 melanoma
UO-31 renal = system: UO-31 renal
A549 NSCLC = system: A549 NSCLC
HOP-92 NSCLC = system: HOP-92 NSCLC
IGROV1 ovarian = system: IGROV1 ovarian
RPMI-8226 leukemia = system: RPMI-8226 leukemia

## O=C(O)c1ccc2nc(-c3ccc(OCCCCCOc4ccc(-c5nc6ccc(C(=O)O)cc6[nH]5)cc4)cc3)[nH]c2c1
786-0 renal
  GI50: > 100 µM
  TGI: > 100 µM
A498 renal
  GI50: > 100 µM
  TGI: > 100 µM
ACHN renal
  GI50: > 100 µM
  TGI: > 100 µM
BT-549 breast
  GI50: > 100 µM
  TGI: > 100 µM
CAKI-1 renal
  GI50: > 100 µM
  TGI: > 100 µM
CCRF-CEM leukemia
  GI50: 18.8 µM
  TGI: 44.2 µM
COLO 205 colon
  GI50: > 100 µM
  TGI: > 100 µM
DU-145 prostate
  GI50: > 100 µM
  TGI: > 100 µM
EKVX NSCLC
  GI50: > 100 µM
  TGI: > 100 µM
HCC-2998 colon
  GI50: > 100 µM
  TGI: > 100 µM
HCT-116 colon
  GI50: > 100 µM
  TGI: > 100 µM
HCT-15 colon
  GI50: > 100 µM
  TGI: > 100 µM
HL-60(TB) leukemia
  GI50: > 100 µM
  TGI: > 100 µM
HOP-62 NSCLC
  GI50: > 100 µM
  TGI: > 100 µM
HS 578T breast
  GI50: > 100 µM
  TGI: > 100 µM
HT29 colon
  GI50: > 100 µM
  TGI: > 100 µM
K-562 leukemia
  GI50: 22.3 µM
  TGI: > 100 µM
KM12 colon
  GI50: > 100 µM
  TGI: > 100 µM
LOX IMVI melanoma
  GI50: > 100 µM
  TGI: > 100 µM
M14 melanoma
  GI50: > 100 µM
  TGI: > 100 µM
MALME-3M melanoma
  GI50: > 100 µM
  TGI: > 100 µM
MCF7 breast
  GI50: > 100 µM
  TGI: > 100 µM
MDA-MB-231 breast
  GI50: > 100 µM
  TGI: > 100 µM
MDA-MB-435
  GI50: > 100 µM
  TGI: > 100 µM
MOLT-4 leukemia
  GI50: 29.7 µM
  TGI: > 100 µM
NCI-H226 lung
  GI50: > 100 µM
  TGI: > 100 µM
NCI-H23 lung
  GI50: > 100 µM
  TGI: > 100 µM
NCI-H460 lung
  GI50: > 100 µM
  TGI: > 100 µM
NCI-H522 lung
  GI50: > 100 µM
  TGI: > 100 µM
NCI/ADR-RES ovarian
  GI50: > 100 µM
  TGI: > 100 µM
OVCAR-3 ovarian
  GI50: > 100 µM
  TGI: > 100 µM
OVCAR-4 ovarian
  GI50: > 100 µM
  TGI: > 100 µM
OVCAR-5 ovarian
  GI50: > 100 µM
  TGI: > 100 µM
OVCAR-8 ovarian
  GI50: > 100 µM
  TGI: > 100 µM
PC-3 prostate
  GI50: > 100 µM
  TGI: > 100 µM
SF-268 CNS
  GI50: > 100 µM
  TGI: > 100 µM
SF-295 CNS
  GI50: > 100 µM
  TGI: > 100 µM
SF-539 CNS
  GI50: > 100 µM
  TGI: > 100 µM
SK-MEL-2 melanoma
  GI50: > 100 µM
  TGI: > 100 µM
SK-MEL-28 melanoma
  GI50: > 100 µM
  TGI: > 100 µM
SK-MEL-5 melanoma
  GI50: > 100 µM
  TGI: > 100 µM
SK-OV-3 ovarian
  GI50: > 100 µM
  TGI: > 100 µM
SN12C renal
  GI50: > 100 µM
  TGI: > 100 µM
SNB-19 CNS
  GI50: > 100 µM
  TGI: > 100 µM
SNB-75 CNS
  GI50: > 100 µM
  TGI: > 100 µM
SR leukemia
  GI50: 22.3 µM
  TGI: 48.6 µM
SW-620 colon
  GI50: > 100 µM
  TGI: > 100 µM
T-47D breast
  GI50: > 100 µM
  TGI: > 100 µM
TK-10 renal
  GI50: > 100 µM
  TGI: > 100 µM
U251 CNS
  GI50: > 100 µM
  TGI: > 100 µM
UACC-257 melanoma
  GI50: > 100 µM
  TGI: > 100 µM
UACC-62 melanoma
  GI50: > 100 µM
  TGI: > 100 µM
UO-31 renal
  GI50: > 100 µM
  TGI: > 100 µM

## COc1ccc(CN(Cc2ccc(OC)cc2)C(=O)CC2(O)CCc3ccccc3C2)cc1 (configuration not stated)
786-0 renal
  TGI: > 100 µM
A498 renal
  TGI: > 100 µM
A549 NSCLC
  TGI: > 100 µM
ACHN renal
  TGI: > 100 µM
BT-549 breast
  TGI: > 100 µM
CAKI-1 renal
  TGI: > 100 µM
CCRF-CEM leukemia
  TGI: > 100 µM
COLO 205 colon
  TGI: 57.4 µM
DU-145 prostate
  TGI: > 100 µM
EKVX NSCLC
  TGI: > 100 µM
HCC-2998 colon
  TGI: > 100 µM
HCT-116 colon
  TGI: > 100 µM
HCT-15 colon
  TGI: > 100 µM
HL-60(TB) leukemia
  TGI: 80.1 µM
HOP-62 NSCLC
  TGI: > 100 µM
HOP-92 NSCLC
  TGI: > 100 µM
HS 578T breast
  TGI: > 100 µM
HT29 colon
  TGI: > 100 µM
IGROV1 ovarian
  TGI: > 100 µM
K-562 leukemia
  TGI: > 100 µM
KM12 colon
  TGI: > 100 µM
LOX IMVI melanoma
  TGI: > 100 µM
M14 melanoma
  TGI: > 100 µM
MALME-3M melanoma
  TGI: > 100 µM
MCF7 breast
  TGI: > 100 µM
MDA-MB-231 breast
  TGI: > 100 µM
MDA-MB-435
  TGI: > 100 µM
MOLT-4 leukemia
  TGI: 56 µM
NCI-H226 lung
  TGI: > 100 µM
NCI-H23 lung
  TGI: > 100 µM
NCI-H460 lung
  TGI: > 100 µM
NCI-H522 lung
  TGI: > 100 µM
NCI/ADR-RES ovarian
  TGI: > 100 µM
OVCAR-3 ovarian
  TGI: > 100 µM
OVCAR-4 ovarian
  TGI: > 100 µM
OVCAR-5 ovarian
  TGI: > 100 µM
OVCAR-8 ovarian
  TGI: > 100 µM
PC-3 prostate
  TGI: > 100 µM
RPMI-8226 leukemia
  TGI: > 100 µM
SF-295 CNS
  TGI: > 100 µM
SF-539 CNS
  TGI: > 100 µM
SK-MEL-2 melanoma
  TGI: > 100 µM
SK-MEL-28 melanoma
  TGI: > 100 µM
SK-MEL-5 melanoma
  TGI: > 100 µM
SK-OV-3 ovarian
  TGI: > 100 µM
SN12C renal
  TGI: > 100 µM
SNB-19 CNS
  TGI: > 100 µM
SNB-75 CNS
  TGI: > 100 µM
SR leukemia
  TGI: > 100 µM
SW-620 colon
  TGI: > 100 µM
T-47D breast
  TGI: > 100 µM
TK-10 renal
  TGI: > 100 µM
U251 CNS
  TGI: > 100 µM
UACC-257 melanoma
  TGI: > 100 µM
UACC-62 melanoma
  TGI: > 100 µM
UO-31 renal
  TGI: > 100 µM
